Legend:
[1] = Hygroscopicity: water uptake on stepwise increase/decrease of relative humidity; assay type: physicochemical; conditions: for water uptake: value at end of the one hour storage period
Description: In these experiments humidity was increased/decreased stepwise. Starting at 0% relative humidity every one hour the humidity level was increased by 10% relative humidity. The gain/loss of weight was recorded continuously. The values given represent the value at the end of the one hour storage period at the indicated relative humidity level.
This water is easily lost, e.g. by storage at a relative humidity of 60% or less.

[2] = Storage stability at ambient temperature, measured by HPLC (stability and purity test); assay type: physicochemical; conditions: samples stored for 4 months at ambient temperature
Description: Stability and Purity Test:
Apparatus: Agilent 11 Series • Column: YMC-Pro C18; 150×4,6 mm, S-5 μm, 120A • Eluent: mobile phase A: 3.884 g of amidosulfonic acid in 1000 g of water; mobile phase B: 3.884 g of amidosulfonic acid in 250 g of water and 588 g of acetonitrile.
Measurement at a wavelength of 220 nm; injection volume 7 μl, oven temperature 40° C., Flow 1.0 ml/min
Sample preparation: approximately 10 mg of a sample of the crystalline form of alogliptin free base are dissolved in 10 ml of acetonitrile and the solution is filled up to 25 ml with water
Run time 20 min • Gradient: […]

hygroscopicity ([1]; in words): low hygroscopicity
water uptake ([1]; stored at about 25° C. for 60 min at a relative humidity of 50%): about 0.4 % w/w
water uptake ([1]; stored at about 90% relative humidity at about 25° C. for 60 min): about 1.6 % w/w
degradation (chemical stability) [2]: no degradation
SMILES: Cn1c(=O)cc(N2CCC[C@@H](N)C2)n(Cc2ccccc2C#N)c1=O [2-[6-[3(R)-aminopiperidin-1-yl]-3-methyl-2,4-dioxo-1,2,3,4-tetrahydropyrimidin-1-ylmethyl]-benzonitrile]
change in crystal structure / formation of a hydrated form ([1]; exposed to extremely high relative humidity): No change in crystal structure nor the formation of a hydrated form

Reference: US8455639B2, “Crystalline form of an organic compound” (Sandoz AG, priority 2008, dated 2013)
